Data published in patent publication EP0255256A2, “Antibiotics produced by actinomadura parvosata” (SMITHKLINE BECKMAN CORPORATION, priority 1986, dated 1988).

Assays:
[1] = tested on: Staph. epidermidis 2261; assay: MIC, standard microtiter assay; assay type: cell-based; settings: Staphylococcus epidermidis; Staph. epidermidis 2261; Table VIII; read-out: MIC
Experimental: (§1) The in vitro minimal inhibitory concentration (MIC) and the in vitro minimal bactericidal concentration (MBC) of the AAJ-271 aglycones, pseudo-aglycone and vancomycin were determined for a number of microorganisms using the standard microtiter assay procedures.

[2] = tested on: Staph. aureus 209P vancomycin resistant mutant; assay: MIC, standard microtiter assay; assay type: cell-based; settings: Staphylococcus aureus, read-out: MIC in μg/ml
Experimental: as §1

[3] = tested on: Staph. aureus 675; assay: MBC, standard assay procedures; assay type: cell-based; settings: Staphylococcus aureus; Staph. aureus 675; Table VIII; read-out: MBC
Experimental: (§2) The in vitro minimal bactericidal concentration (MBC) of the AAJ-271 C, C2 and C3 factors and vancomycin were determined for a number of microorganisms using standard assay procedures.
as §1

[4] = tested on: Staph. epidermidis 2479; assay: MBC, standard assay procedures; assay type: cell-based; settings: Staphylococcus epidermidis; Staph. epidermidis 2479; Table VIII; read-out: MBC
Experimental: as §2, §1

[5] = tested on: Strep. faecalis 657; assay: MBC, standard assay procedures; assay type: cell-based; settings: Enterococcus faecalis; Strep. faecalis 657; Table VIII; read-out: MBC
Experimental: as §2, §1

[6] = tested on: Staph. aureus HH127; assay: MBC, standard assay procedures; assay type: cell-based; settings: Staphylococcus aureus; Staph. aureus HH127; Table VIII; read-out: MBC
Experimental: as §2, §1

[7] = tested on: Staph. aureus 2620; assay: MBC, standard assay procedures; assay type: cell-based; settings: Staphylococcus aureus; Staph. aureus 2620; Table VIII; read-out: MBC
Experimental: as §2, §1

[8] = tested on: Strep. faecalis 34358; assay: MBC, standard assay procedures; assay type: cell-based; settings: Enterococcus faecalis; Strep. faecalis 34358; Table VIII; read-out: MBC
Experimental: as §2, §1

[9] = tested on: Staph. haemolyticus 651; assay: MBC, standard assay procedures; assay type: cell-based; settings: Staphylococcus haemolyticus; Staph. haemolyticus 651; Table VIII; read-out: MBC
Experimental: as §2, §1

[10] = tested on: Staph. epidermidis 2265; assay: MBC, standard assay procedures; assay type: cell-based; settings: Staphylococcus epidermidis; Staph. epidermidis 2265; Table VIII; read-out: MBC
Experimental: as §2, §1

[11] = tested on: Staph. aureus 209P; assay: MIC, standard microtiter assay; assay type: cell-based; settings: Staphylococcus aureus; Staph. aureus 209P; Table VIII; read-out: MIC
Experimental: (§3) The in vitro minimal inhibitory concentration (MIC) of the AAJ-271 complex and its factors, and vancomycin were determined for a number of microorganisms using the standard microtite'r assay procedures. The results are shown in the following tables, each of which represents a different production run of the complex.
as §1

[12] = tested on: Staph. aureus 910; assay: MIC, standard microtiter assay; assay type: cell-based; settings: Staphylococcus aureus; Staph. aureus 910; Table VIII; read-out: MIC
Experimental: as §3, §1

[13] = tested on: Staph. aureus 675; assay: MIC, standard microtiter assay; assay type: cell-based; settings: Staphylococcus aureus; Staph. aureus 675; Table VIII; read-out: MIC
Experimental: as §3, §1

[14] = tested on: Staph. epidermidis 2479; assay: MIC, standard microtiter assay; assay type: cell-based; settings: Staphylococcus epidermidis; Staph. epidermidis 2479; Table VIII; read-out: MIC
Experimental: as §3, §1

[15] = tested on: Strep. faecalis 657; assay: MIC, standard microtiter assay; assay type: cell-based; settings: Enterococcus faecalis; Strep. faecalis 657; Table VIII; read-out: MIC
Experimental: as §3, §1

[16] = tested on: Staph. aureus HH127; assay: MIC, standard microtiter assay; assay type: cell-based; settings: Staphylococcus aureus; Staph. aureus HH127; Table VIII; read-out: MIC
Experimental: as §3, §1

[17] = tested on: Staph. epidermidis 2588; assay: MIC, standard microtiter assay; assay type: cell-based; settings: Staphylococcus epidermidis; Staph. epidermidis 2588; Table VIII; read-out: MIC
Experimental: as §3, §1

[18] = tested on: Staph. epidermidis 2256; assay: MIC, standard microtiter assay; assay type: cell-based; settings: Staphylococcus epidermidis; Staph. epidermidis 2256; Table VIII; read-out: MIC
Experimental: as §3, §1

[19] = tested on: Staph. aureus 2620; assay: MIC, standard microtiter assay; assay type: cell-based; settings: Staphylococcus aureus; Staph. aureus 2620; Table VIII; read-out: MIC
Experimental: as §3, §1

[20] = tested on: Strep. faecalis 34358; assay: MIC, standard microtiter assay; assay type: cell-based; settings: Enterococcus faecalis; Strep. faecalis 34358; Table VIII; read-out: MIC
Experimental: as §3, §1

[21] = tested on: Strep. pyogenes (Group A); assay: MIC, standard microtiter assay; assay type: cell-based; settings: Streptococcus pyogenes; Strep. pyogenes (Group A); Table VIII; read-out: MIC
Experimental: as §3, §1

[22] = tested on: Staph. haemolyticus 651; assay: MIC, standard microtiter assay; assay type: cell-based; settings: Staphylococcus haemolyticus; Staph. haemolyticus 651; Table VIII; read-out: MIC
Experimental: as §3, §1

[23] = tested on: Staph. epidermidis 2265; assay: MIC, standard microtiter assay; assay type: cell-based; settings: Staphylococcus epidermidis; Staph. epidermidis 2265; Table VIII; read-out: MIC
Experimental: as §3, §1

[24] = tested on: Staph. saprophyticus 2657; assay: MIC, standard microtiter assay; assay type: cell-based; settings: Staphylococcus saprophyticus; Staph. saprophyticus 2657; Table VIII; read-out: MIC
Experimental: as §3, §1

[25] = tested on: Staph. epidermidis 2261; assay: MBC, standard assay procedures; assay type: cell-based; settings: Staphylococcus epidermidis; Staph. epidermidis 2261; Table VIII; read-out: MBC
Experimental: as §1

[26] = tested on: Staph. aureus 209P vancomycin resistant mutant; assay: MBC, standard assay procedures; assay type: cell-based; settings: Staphylococcus aureus, read-out: MBC in μg/ml
Experimental: as §1

[27] = tested on: Staph. aureus 209P; assay: MBC, standard assay procedures; assay type: cell-based; settings: Staphylococcus aureus; Staph. aureus 209P; Table VIII; read-out: MBC
Experimental: as §1

[28] = tested on: Staph. aureus 910; assay: MBC, standard assay procedures; assay type: cell-based; settings: Staphylococcus aureus; Staph. aureus 910; Table VIII; read-out: MBC
Experimental: as §1

[29] = tested on: Staph. epidermidis 2588; assay: MBC, standard assay procedures; assay type: cell-based; settings: Staphylococcus epidermidis; Staph. epidermidis 2588; Table VIII; read-out: MBC
Experimental: as §1

[30] = tested on: Staph. epidermidis 2256; assay: MBC, standard assay procedures; assay type: cell-based; settings: Staphylococcus epidermidis; Staph. epidermidis 2256; Table VIII; read-out: MBC
Experimental: as §1

[31] = tested on: Strep. pyogenes (Group A); assay: MBC, standard assay procedures; assay type: cell-based; settings: Streptococcus pyogenes; Strep. pyogenes (Group A); Table VIII; read-out: MBC
Experimental: as §1

[32] = tested on: Staph. saprophyticus 2657; assay: MBC, standard assay procedures; assay type: cell-based; settings: Staphylococcus saprophyticus; Staph. saprophyticus 2657; Table VIII; read-out: MBC
Experimental: as §1

[33] = tested on: A. parvosata; assay: Susceptibility of A. parvosata to antibiotic disks; assay type: cell-based, Actinomadura parvosata; settings: BBL susceptibility disks on nutrient agar; rifampin 5 ug, penicillin 10 U; 1 week at 28°C
Experimental: Susceptibility of A. parvosata to antibiotics was examined by placing BBL susceptibility disks on nutrient agar plates seeded with A. parvosata. Plates were placed at 4°C for 1 hour to permit diffusion of the antibiotics. Diameters of the zones of inhibition were measured after incubation for 1 week at 28°C.

CN(C)C1C(=O)NC2Cc3ccc(cc3)Oc3cc4cc(c3O)Oc3ccc(cc3Cl)C(O)C3NC(=O)C(NC(=O)C4NC(=O)C(NC2=O)c2cc(cc(O)c2Cl)Oc2cc1ccc2O)c1ccc(O)c(c1)-c1c(O)cc(O)cc1C(C(=O)O)NC3=O (stereo not shown) [Aglycone 2]
> 50 µg/mL: MBC [8]
0.8 µg/mL: MBC [4] | MBC [7] | MBC [10] | MIC [14] | MIC [18] | MIC [19] | MIC [23] | MIC [24] | MBC [30] | MBC [31] | MBC [32]
1.6 µg/mL: MIC [1] | MIC [15] | MIC [17] | MIC [20] | MIC [21] | MBC [25]
25 µg/mL: MIC [2] | MBC [26]
6.3 µg/mL: MBC [5] | MBC [9] | MIC [22]
0.4 µg/mL: MBC [3] | MBC [6] | MIC [11] | MIC [12] | MIC [13] | MIC [16] | MBC [27] | MBC [28]
3.1 µg/mL: MBC [29]

CO[C@H]1/C=C/O[C@@]2(C)Oc3c(C)c(O)c4c(O)c(c(/C=N/N5CCN(C)CC5)c(O)c4c3C2=O)NC(=O)/C(C)=C\C=C\[C@H](C)[C@H](O)[C@@H](C)[C@@H](O)[C@@H](C)[C@H](OC(C)=O)[C@@H]1C [rifampin]
resistant: susceptibility of A. parvosata to antibiotic disks (zones of inhibition) [33]

penicillin
resistant: susceptibility of A. parvosata to antibiotic disks (zones of inhibition) [33]
